The EC50 is the concentration that produces a half-maximal response.

Assay [1] has as its target T1, TAS1R2 (Homo sapiens, UniProt Q8TE23).
T1 construct: VFT domain of TAS1R2 in the TAS1R2/TAS1R3 heterodimer; with TAS1R3 (human; also mouse TAS1R3)
T1 sequence (Q8TE23 22-839): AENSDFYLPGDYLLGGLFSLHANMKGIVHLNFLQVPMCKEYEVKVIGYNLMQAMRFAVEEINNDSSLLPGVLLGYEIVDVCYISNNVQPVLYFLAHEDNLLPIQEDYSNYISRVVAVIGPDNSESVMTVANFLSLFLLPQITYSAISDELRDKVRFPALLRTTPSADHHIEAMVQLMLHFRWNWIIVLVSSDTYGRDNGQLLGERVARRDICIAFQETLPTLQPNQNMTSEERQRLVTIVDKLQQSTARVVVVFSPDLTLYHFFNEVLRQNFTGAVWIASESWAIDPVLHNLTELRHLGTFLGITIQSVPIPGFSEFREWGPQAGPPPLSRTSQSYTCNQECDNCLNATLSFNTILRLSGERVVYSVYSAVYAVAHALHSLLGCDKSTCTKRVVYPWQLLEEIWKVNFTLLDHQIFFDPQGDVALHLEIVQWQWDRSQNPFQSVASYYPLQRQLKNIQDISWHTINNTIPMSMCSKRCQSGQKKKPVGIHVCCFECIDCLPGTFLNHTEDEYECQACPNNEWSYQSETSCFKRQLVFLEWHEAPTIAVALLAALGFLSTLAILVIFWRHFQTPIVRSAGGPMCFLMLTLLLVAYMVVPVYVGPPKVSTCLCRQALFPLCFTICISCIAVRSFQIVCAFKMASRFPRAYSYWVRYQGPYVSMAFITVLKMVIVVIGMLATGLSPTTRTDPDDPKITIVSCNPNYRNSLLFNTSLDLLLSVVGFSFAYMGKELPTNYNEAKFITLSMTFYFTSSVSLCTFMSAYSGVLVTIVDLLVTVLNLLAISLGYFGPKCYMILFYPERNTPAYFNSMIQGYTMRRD
T1 sequence (Q7RTX0 21-852 partner): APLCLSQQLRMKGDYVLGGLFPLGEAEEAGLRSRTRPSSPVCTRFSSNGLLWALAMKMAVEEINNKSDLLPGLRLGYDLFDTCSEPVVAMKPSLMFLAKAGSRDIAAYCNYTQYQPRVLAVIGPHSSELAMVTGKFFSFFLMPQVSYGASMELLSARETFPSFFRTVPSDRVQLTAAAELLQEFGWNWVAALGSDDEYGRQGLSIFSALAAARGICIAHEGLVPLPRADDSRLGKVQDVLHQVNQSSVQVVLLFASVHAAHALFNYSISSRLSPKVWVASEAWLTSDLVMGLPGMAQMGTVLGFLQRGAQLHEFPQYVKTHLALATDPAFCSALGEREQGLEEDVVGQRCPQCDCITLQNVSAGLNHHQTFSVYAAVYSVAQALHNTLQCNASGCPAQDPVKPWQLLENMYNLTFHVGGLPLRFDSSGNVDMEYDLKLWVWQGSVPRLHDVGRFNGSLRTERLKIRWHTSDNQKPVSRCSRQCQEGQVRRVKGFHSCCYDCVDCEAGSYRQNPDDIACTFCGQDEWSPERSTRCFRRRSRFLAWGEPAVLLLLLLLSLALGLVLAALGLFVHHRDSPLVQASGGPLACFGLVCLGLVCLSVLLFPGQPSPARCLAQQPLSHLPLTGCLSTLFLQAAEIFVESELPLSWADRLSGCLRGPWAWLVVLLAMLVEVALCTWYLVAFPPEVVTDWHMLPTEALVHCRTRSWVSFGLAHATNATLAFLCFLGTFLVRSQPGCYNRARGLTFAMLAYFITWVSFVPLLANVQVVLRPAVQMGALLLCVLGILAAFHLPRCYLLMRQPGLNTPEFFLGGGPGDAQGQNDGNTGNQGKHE
The assay can be described thus: cryo-EM structures of human/human and human/mouse receptor with advantame; EC50 from cell-based calcium imaging (human/human). An excerpt: cryo-EM structures of human/human and human/mouse receptor with advantame; EC50 from cell-based calcium imaging (human/human) on TAS1R2 | Advantame also yields well-defined ligand density in the TAS1R2 VFT pocket of both human/mouse and human/human receptors

Assay [2] addresses T2, TAS1R2 (Homo sapiens, UniProt Q8TE23).
T2 construct: TAS1R2/TAS1R3 heterodimer; with TAS1R3 (human)
T2 sequence (Q8TE23 20-839): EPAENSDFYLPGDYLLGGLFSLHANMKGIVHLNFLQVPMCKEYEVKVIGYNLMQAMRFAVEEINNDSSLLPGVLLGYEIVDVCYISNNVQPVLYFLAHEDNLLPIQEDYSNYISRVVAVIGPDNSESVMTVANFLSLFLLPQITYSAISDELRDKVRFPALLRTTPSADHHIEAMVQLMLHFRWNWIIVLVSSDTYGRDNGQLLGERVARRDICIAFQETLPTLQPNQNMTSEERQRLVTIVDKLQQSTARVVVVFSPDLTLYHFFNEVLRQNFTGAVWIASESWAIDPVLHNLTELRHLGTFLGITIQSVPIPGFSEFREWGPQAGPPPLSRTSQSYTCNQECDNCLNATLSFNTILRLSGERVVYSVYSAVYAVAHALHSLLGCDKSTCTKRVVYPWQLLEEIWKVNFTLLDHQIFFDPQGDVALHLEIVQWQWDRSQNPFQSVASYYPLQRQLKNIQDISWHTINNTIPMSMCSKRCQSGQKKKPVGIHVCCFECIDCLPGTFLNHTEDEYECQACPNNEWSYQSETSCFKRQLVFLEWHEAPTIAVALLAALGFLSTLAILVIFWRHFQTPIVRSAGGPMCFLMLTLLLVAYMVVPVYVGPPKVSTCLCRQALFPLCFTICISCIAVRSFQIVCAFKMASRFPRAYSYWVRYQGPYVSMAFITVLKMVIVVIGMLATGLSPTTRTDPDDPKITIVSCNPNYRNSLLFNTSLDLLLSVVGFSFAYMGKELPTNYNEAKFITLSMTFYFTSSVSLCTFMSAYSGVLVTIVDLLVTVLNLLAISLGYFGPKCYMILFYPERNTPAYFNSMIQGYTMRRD
T2 sequence (Q7RTX0 21-852 partner): T1 sequence (Q7RTX0 21-852 partner)
The assay can be described thus: cell-based calcium imaging of the expressed human/human receptor.

As to `COC(=O)[C@H](Cc1ccccc1)NC(=O)[C@H](CC(=O)O)NCCCc1ccc(OC)c(O)c1` [Adv, advantame], the concentration for a half-maximal effect (EC50) in assay [1] amounted to 900 nM. As to `COC(=O)[C@H](Cc1ccccc1)NC(=O)[C@H](CC(=O)O)NCCC(C)(C)C` [neotame], in assay [2], the EC50 was 2700 nM.

The values above are taken from article PMC12484785, “Structure and activation mechanism of human sweet taste receptor” (Cell Research, 2025).
